Assays:
Assay type in all cases: in vivo
[1] = test system: BLM-induced pulmonary fibrosis; assay: Effect of rLZ-8 on BLM-induced pulmonary fibrosis of mice, Szapiel grading; settings: Group F: positive drug dexamethasone 4 mg/kg injected, n=12
Description: Experiment groups: there were 7 groups in the experiment and 12 mice in each group. The groups were a saline group (group A), a model group (group B), a low treatment dose group (group C), a medium dose group (group D), a high dose group (group E), a positive control group (group F) and an administration group one week after modeling (group G). The process of modeling was the same as the embodiment 1.
Treating process: groups B, C, D, E, F and G all adopted low BLM dose for modeling. Group A and Group B were injected with saline for serving as contrast groups; Groups C, D and E were injected with rLZ-8 each day for treatment. Mice in these groups were weighed every 3 days and drugs were administrated according to weights of the mice. The dose for Group C was 3.84375 μg/kg, the dose for Group D was 7.6875 μg/kg, the dose for Group E was 19.21875 μg/kg, Group F were injected with positive drug dexamethasone 4 mg/kg, Group G were injected with rLZ-8 for treatment 1 week after modeling and the dose was 7.6875 μg/kg.
On the 14th day and the 21st day, 6 mice were randomly picked and killed in each group. Lungs of the mice were taken out to watch the color of the lungs, if the surface was intact or not, and the changes in the lung surface; parts of the lung tissue were paraffin sectioned and HE stained to be examined histologically; other parts were done with RT-PCR to examine the RNA level. According to histological analysis, RNA level, protein level and the change in the amount of inflammatory cells, the grades of fibrosis were decided.

[2] = test system: mice (renal fibrosis model); assay: Model making of renal fibrosis of mice with cisplatin (CDDP), survival and weight
Experimental: The number of mice in each group was 12, 12 and 12. They were given intraperitoneal injections for 200 μl/per time/per mouse for 5 consecutive days, and the injectionvolumes contained the appropriate doses of cisplatin (CDDP). On the 1st, the 3rd, the 5th, the 7th, the 14th and the 28th days the mice were weighed and the statistics for the survival rates in each group were recorded.

[3] = test system: lung tissue of mice (pulmonary fibrosis model); assay: Model building of pulmonary fibrosis by BLM atomization, Szapiel grading of lung sections; settings: for number of mice with Szapiel grade 0 (no alveolitis or fibrosis) / number of mice with Szapiel grade I (mild alveolitis or fibrosis) / number of mice with Szapiel grade II (medium alveolitis or fibrosis) / number of mice with Szapiel grade III (severe alveolitis or fibrosis): n=12
Experimental: 1) Modeling experiment grouping: Three groups were classified, a saline group (group A), a low BLM dose group (group B 4 mg/mL), a high BLM dose group (group C 8 mg/Ml), there were 12 mice in each group. The 12 mice in each group were divided into two groups, with 6 mice in each group and the two groups of mice were respectively put into 20×20×20 cm transparent glass containers with corresponding marks, then saline and BLM was sprayed respectively into the containers with medical ultrasonic nebulizers.
2) Model administration process: Each time the spray volume was 1 ml, then a glass cover was closed for 15 minutes and the mice were put back into cages to rest for 5 minutes, and the procedure was repeated 6 times.
The mice were killed respectively after 3 days, 7 days, 14 days and 21 days of feeding, and the lungs of the mice were taken out to see changes in appearance, color and the lung surface; after the lungs were taken out, broncho-alveolar lavage was done first, and then parts of the lung tissue were sliced into paraffin sections and histological examination was done on HE stain; RT-PCR was done on another parts of lung tissue to examine RNA level. Judged from histological analysis, RNA level, protein level and changes in amounts of inflammatory cells, a decision was made to see whether the model of pulmonary fibrosis is usable. The table below is the grading standards made by method of Szapiel to evaluate grading standard of seriousness of the pathological changes in the lung tissue.
There are 4 grades in Szapiel's pathological changes in lung tissue: “0” is grade 1; “I” is grade 2; “II” is grade 3; and “III” is grade 4. The higher the grade, the severer the degree of fibrosis is.

[4] = High BLM group, 8 mg/mL atomization
[5] = Low BLM group, 4 mg/mL atomization

C[C@@H]1C[C@H]2[C@@H]3CCC4=CC(=O)C=C[C@]4(C)[C@@]3(F)[C@@H](O)C[C@]2(C)[C@@]1(O)C(=O)CO [dexamethasone]
number of mice with Szapiel grade 0 (no fibrosis) [1]: 0 | number of mice with Szapiel grade I (mild) [1]: 3 | number of mice with Szapiel grade II (medium) [1]: 5 | number of mice with Szapiel grade III (severe) [1]: 4

N.N.[Cl][Pt][Cl] [cisplatin]
survival rate ([2]; CDDP 5 mg/kg intraperitoneal, 5 consecutive days, 28th day): 90% | survival rate ([2]; CDDP 7 mg/kg intraperitoneal, 5 consecutive days, 7th day): 60% | mice survived ([2]; CDDP 7 mg/kg intraperitoneal, 5 consecutive days, 28th day): 30% | effect on weight of mice ([2]; cisplatin 5 mg/kg doses): weight loss

bleomycin [BLM]
number of mice with Szapiel grade 0 (no alveolitis or fibrosis) [3, 4]: 0 | number of mice with Szapiel grade I (mild alveolitis or fibrosis) [3, 4]: 1 | number of mice with Szapiel grade II (medium alveolitis or fibrosis) [3, 4]: 2 | number of mice with Szapiel grade III (severe alveolitis or fibrosis) [3, 4]: 9 | number of mice with Szapiel grade 0 (no alveolitis or fibrosis) [3, 5]: 0 | number of mice with Szapiel grade I (mild alveolitis or fibrosis) [3, 5]: 3 | number of mice with Szapiel grade II (medium alveolitis or fibrosis) [3, 5]: 8 | number of mice with Szapiel grade III (severe alveolitis or fibrosis) [3, 5]: 1 | deaths of mice ([3]; high BLM dose group, 8 mg/mL): most of them died of respiratory failures | lung sections of the mice showing severe fibrosis ([3]; high BLM dose group, 8 mg/mL): 75% | lung sections of the mice showing medium fibrosis ([3]; low BLM dose group, 4 mg/mL): 66%
